Measurements published in patent US9562899B2, “Method of detecting OXA-048 carbapenemase producing bacteria” (BIOMÉRIEUX, priority 2012, dated 2017).
Read-outs that look alike come from different tables or passages of the source.

Tests used:
OXA-48 strains [1] = assay: Prototype medium, strains detected (Example 3); type: cell-based, Enterobacteriaceae; settings: 24 hours of incubation
Protocol: (§1) The media are prepared in 55 mm diameter Petri dishes. They are inoculated using a bacterial suspension in physiological saline at 0.5 McF for the non-OXA-48 strains and with a 1/100 and 1/10 000 dilution of a suspension at 0.5 McF for the OXA-48 strains. The inoculation consists of 3-quadrant streaking using a 10 μl calibrated loop: theoretical deposit of 10^4 or 10^2 CFU for the OXA-48 strains and of 10^6 CFU for the strains not producing OXA-48.
(§2) The media are incubated at 37° C. The readings will be carried out after 18 and 24 hours of incubation.
(§3) The growth density, the colony sizes and also the coloration (color and strength) are evaluated.
(§4) Reaction medium identical to the base used for example 1. A selective system comprising a mixture of antibiotics and antifungals which is specific for Gram-positives, yeasts and Gram-negatives which are non-fermenting, and also cloxacillin and EDTA, is also added.
(§5) A medium at 200 mg/l of temocillin is tested without selective system as indicated above.

Non-OXA-48 strains = assay: Prototype medium, strains detected (Example 3); type: cell-based, Enterobacteriaceae; settings: Non-OXA-48 deposit of 10^6 CFU; temocillin 300 mg/l; 24 hours
Protocol: as §1, §2, §3, §4, §5

[2] = tested on: strains with a metallo-carbapenemase; settings: Livermore et al.; cited from earlier work
OXA-48 strains [3] = settings: Livermore et al., cited from earlier work
VIM strains = type: cell-based, Enterobacteriaceae; settings: Ex 2, MIC in mg/l
Source text: (§6) Optimization of the Detection Specificity by Introducing Specific Inhibitors Inhibition of Class B Strains (NDM, VIM, IMP) by Adding EDTA
(§7) Identical to that used to determine the temocillin MICs by agar dilution (example 1).
(§8) For each temocillin concentration, the following concentrations of active EDTA will be tested in the form of disodium EDTA: 0, 1.77, 2.12, 2.47 and 2.83 mmol/l.
(§9) Method: identical to the method used in example 1.

NDM-1 strains = type: cell-based, Enterobacteriaceae; settings: Ex 2, MIC in mg/l
Source text: as §6, §7, §8, §9

[4] = tested on: strains with impermeability-mediated resistance (IR); type: cell-based, Enterobacteriaceae; settings: Ex 2, MIC in mg/l
Source text: as §6, §7, §8, §9

OXA-48 strains [5] = assay: Temocillin MIC, agar dilution (Example 1); type: cell-based, Enterobacteriaceae
Protocol: Determination of the MICs with Respect to Temocillin for a Panel of CPE Strains (Using the Agar Dilution Method)
Reaction medium: the base is a chromLD™ CPS medium (bioMérieux, ref. 43821-43829), comprising a chromogenic substrate for beta-glucuronidase, a chromogenic substrate for beta-glucosidase, a chromogenic substrate for beta-galactosidase and a substrate for deaminase. Temocillin is added to this base medium at the concentrations indicated hereinafter.
Temocillin range tested: 50-150-200-300 mg/l (disodium temocillin, Eumedica SA, Manage, Belgium).
The media are inoculated by depositing a spot: 1 μl of a microbial suspension in physiological saline at 0.5 McF, diluted to 1/10.
Incubation for 24 h at 37° C.
Reading after incubation for 24 hours. The medium with the smallest temocillin concentration on which a negative growth spot is obtained will be retained as the MIC. The spots having only 3 colonies or less or a total absence of growth were considered to be negative.

[6] = Ex 1, temocillin alone, MIC in mg/l

CO[C@@]1(NC(=O)C(C(=O)O)c2ccsc2)C(=O)N2[C@@H](C(=O)O)C(C)(C)S[C@@H]21 (stereo partly shown) [temocillin]
No. of strains detected (OXA-48 strains [1]; OXA-48 deposit of 10^2 CFU, temocillin 200 mg/l without selective system): 15/15
No. of strains detected (OXA-48 strains [1]; OXA-48 deposit of 10^2 CFU, temocillin 200 mg/l): 15/15
No. of strains detected (OXA-48 strains [1]; OXA-48 deposit of 10^2 CFU, temocillin 300 mg/l): 15/15
No. of strains detected (OXA-48 strains [1]; OXA-48 deposit of 10^2 CFU, temocillin 500 mg/l): 9/15
No. of strains detected (OXA-48 strains [1]; OXA-48 deposit of 10^4 CFU, temocillin 200 mg/l without selective system): 15/15
No. of strains detected (OXA-48 strains [1]; OXA-48 deposit of 10^4 CFU, temocillin 200 mg/l): 15/15
No. of strains detected (OXA-48 strains [1]; OXA-48 deposit of 10^4 CFU, temocillin 300 mg/l): 15/15
No. of strains detected (OXA-48 strains [1]; OXA-48 deposit of 10^4 CFU, temocillin 400 mg/l): 15/15
No. of strains detected (OXA-48 strains [1]; OXA-48 deposit of 10^4 CFU, temocillin 500 mg/l): 12/15
No. of strains detected (Non-OXA-48 strains): 1/13
strains resistant to temocillin [2]: 32/35
strains resistant to temocillin (OXA-48 strains [3]; OXA-48 strains): 18/19
minimum inhibitory concentration (MIC) (OXA-48 strains [3]; resistant strains, growth at final concentration tested of 128 mg/l): ≥ 256 µg/mL
No. of VIM strains with MIC 150 (VIM strains; 0 mmol/l of EDTA): 6
No. of VIM strains with MIC 200 (VIM strains; 0 mmol/l of EDTA): 1
No. of VIM strains with MIC 300 (VIM strains; 0 mmol/l of EDTA): 0
No. of VIM strains with MIC >300 (VIM strains; 0 mmol/l of EDTA): 1
No. of VIM strains with MIC ≦50 (VIM strains; 0 mmol/l of EDTA): 9
No. of VIM strains with MIC 150 (VIM strains; 1.77 mmol/l of active EDTA): 0
No. of VIM strains with MIC 200 (VIM strains; 1.77 mmol/l of active EDTA): 0
No. of VIM strains with MIC 300 (VIM strains; 1.77 mmol/l of active EDTA): 0
No. of VIM strains with MIC >300 (VIM strains; 1.77 mmol/l of active EDTA): 0
No. of VIM strains with MIC ≦50 (VIM strains; 1.77 mmol/l of active EDTA): 17
No. of VIM strains with MIC 150 (VIM strains; 2.12 mmol/l of active EDTA): 0
No. of VIM strains with MIC 200 (VIM strains; 2.12 mmol/l of active EDTA): 0
No. of VIM strains with MIC 300 (VIM strains; 2.12 mmol/l of active EDTA): 0
No. of VIM strains with MIC >300 (VIM strains; 2.12 mmol/l of active EDTA): 0
No. of VIM strains with MIC ≦50 (VIM strains; 2.12 mmol/l of active EDTA): 17
No. of VIM strains with MIC 150 (VIM strains; 2.47 mmol/l of active EDTA): 0
No. of VIM strains with MIC 200 (VIM strains; 2.47 mmol/l of active EDTA): 0
No. of VIM strains with MIC 300 (VIM strains; 2.47 mmol/l of active EDTA): 0
No. of VIM strains with MIC >300 (VIM strains; 2.47 mmol/l of active EDTA): 0
No. of VIM strains with MIC ≦50 (VIM strains; 2.47 mmol/l of active EDTA): 17
No. of VIM strains with MIC 150 (VIM strains; 2.83 mmol/l of active EDTA): 0
No. of VIM strains with MIC 200 (VIM strains; 2.83 mmol/l of active EDTA): 0
No. of VIM strains with MIC 300 (VIM strains; 2.83 mmol/l of active EDTA): 0
No. of VIM strains with MIC >300 (VIM strains; 2.83 mmol/l of active EDTA): 0
No. of VIM strains with MIC ≦50 (VIM strains; 2.83 mmol/l of active EDTA): 17
No. of NDM-1 strains with MIC 150 (NDM-1 strains; 0 mmol/l of EDTA): 4
No. of NDM-1 strains with MIC 200 (NDM-1 strains; 0 mmol/l of EDTA): 1
No. of NDM-1 strains with MIC 300 (NDM-1 strains; 0 mmol/l of EDTA): 0
No. of NDM-1 strains with MIC >300 (NDM-1 strains; 0 mmol/l of EDTA): 0
No. of NDM-1 strains with MIC ≦50 (NDM-1 strains; 0 mmol/l of EDTA): 22
No. of NDM-1 strains with MIC 150 (NDM-1 strains; 1.77 mmol/l of active EDTA): 2
No. of NDM-1 strains with MIC 200 (NDM-1 strains; 1.77 mmol/l of active EDTA): 0
No. of NDM-1 strains with MIC 300 (NDM-1 strains; 1.77 mmol/l of active EDTA): 0
No. of NDM-1 strains with MIC >300 (NDM-1 strains; 1.77 mmol/l of active EDTA): 0
No. of NDM-1 strains with MIC ≦50 (NDM-1 strains; 1.77 mmol/l of active EDTA): 25
No. of NDM-1 strains with MIC 150 (NDM-1 strains; 2.12 mmol/l of active EDTA): 1
No. of NDM-1 strains with MIC 200 (NDM-1 strains; 2.12 mmol/l of active EDTA): 0
No. of NDM-1 strains with MIC 300 (NDM-1 strains; 2.12 mmol/l of active EDTA): 0
No. of NDM-1 strains with MIC >300 (NDM-1 strains; 2.12 mmol/l of active EDTA): 0
No. of NDM-1 strains with MIC ≦50 (NDM-1 strains; 2.12 mmol/l of active EDTA): 26
No. of NDM-1 strains with MIC 150 (NDM-1 strains; 2.47 mmol/l of active EDTA): 1
No. of NDM-1 strains with MIC 200 (NDM-1 strains; 2.47 mmol/l of active EDTA): 0
No. of NDM-1 strains with MIC 300 (NDM-1 strains; 2.47 mmol/l of active EDTA): 0
No. of NDM-1 strains with MIC >300 (NDM-1 strains; 2.47 mmol/l of active EDTA): 0
No. of NDM-1 strains with MIC ≦50 (NDM-1 strains; 2.47 mmol/l of active EDTA): 26
No. of NDM-1 strains with MIC 150 (NDM-1 strains; 2.83 mmol/l of active EDTA): 0
No. of NDM-1 strains with MIC 200 (NDM-1 strains; 2.83 mmol/l of active EDTA): 0
No. of NDM-1 strains with MIC 300 (NDM-1 strains; 2.83 mmol/l of active EDTA): 0
No. of NDM-1 strains with MIC >300 (NDM-1 strains; 2.83 mmol/l of active EDTA): 0
No. of NDM-1 strains with MIC ≦50 (NDM-1 strains; 2.83 mmol/l of active EDTA): 27
No. of IR strains with MIC 150 ([4]; 0 mmol/l of EDTA): 2
No. of IR strains with MIC 200 ([4]; 0 mmol/l of EDTA): 0
No. of IR strains with MIC 300 ([4]; 0 mmol/l of EDTA): 0
No. of IR strains with MIC >300 ([4]; 0 mmol/l of EDTA): 0
No. of IR strains with MIC ≦50 ([4]; 0 mmol/l of EDTA): 8
No. of IR strains with MIC 150 ([4]; 1.77 mmol/l of active EDTA): 4
No. of IR strains with MIC 200 ([4]; 1.77 mmol/l of active EDTA): 1
No. of IR strains with MIC 300 ([4]; 1.77 mmol/l of active EDTA): 1
No. of IR strains with MIC >300 ([4]; 1.77 mmol/l of active EDTA): 0
No. of IR strains with MIC ≦50 ([4]; 1.77 mmol/l of active EDTA): 4
No. of IR strains with MIC 150 ([4]; 2.12 mmol/l of active EDTA): 3
No. of IR strains with MIC 200 ([4]; 2.12 mmol/l of active EDTA): 2
No. of IR strains with MIC 300 ([4]; 2.12 mmol/l of active EDTA): 1
No. of IR strains with MIC >300 ([4]; 2.12 mmol/l of active EDTA): 0
No. of IR strains with MIC ≦50 ([4]; 2.12 mmol/l of active EDTA): 4
No. of IR strains with MIC 150 ([4]; 2.47 mmol/l of active EDTA): 2
No. of IR strains with MIC 200 ([4]; 2.47 mmol/l of active EDTA): 2
No. of IR strains with MIC 300 ([4]; 2.47 mmol/l of active EDTA): 0
No. of IR strains with MIC >300 ([4]; 2.47 mmol/l of active EDTA): 0
No. of IR strains with MIC ≦50 ([4]; 2.47 mmol/l of active EDTA): 6
No. of IR strains with MIC 150 ([4]; 2.83 mmol/l of active EDTA): 3
No. of IR strains with MIC 200 ([4]; 2.83 mmol/l of active EDTA): 1
No. of IR strains with MIC 300 ([4]; 2.83 mmol/l of active EDTA): 0
No. of IR strains with MIC >300 ([4]; 2.83 mmol/l of active EDTA): 0
No. of IR strains with MIC ≦50 ([4]; 2.83 mmol/l of active EDTA): 6
MIC (OXA-48 strains [5]): > 300 µg/mL
No. of OXA-48 strains with MIC 150 (OXA-48 strains [5]; [6]): 0
No. of OXA-48 strains with MIC 200 (OXA-48 strains [5]; [6]): 0
No. of OXA-48 strains with MIC 300 (OXA-48 strains [5]; [6]): 0
No. of OXA-48 strains with MIC >300 (OXA-48 strains [5]; [6]): 15
No. of OXA-48 strains with MIC ≦50 (OXA-48 strains [5]; [6]): 1
